Assay results published in the NIST ThermoML archive (doi:10.1021/je200903m).
± gives the expanded uncertainty stated by the source.

Details: Liquid, isochoric method

CCCCCCn1cc[n+](C)c1.F[B-](F)(F)F [1-hexyl-3-methylimidazolium tetrafluoroborate]
mass density (219.92 K, 2501.7 kPa): 1205.15 ± 1.3 kg/m3 | mass density (225.14 K, 11244 kPa): 1204.69 ± 1.3 kg/m3 | mass density (230.79 K, 1012.8 kPa): 1196.2 ± 1.3 kg/m3 | mass density (231.39 K, 21744 kPa): 1204.14 ± 1.3 kg/m3 | mass density (236.44 K, 10093 kPa): 1195.71 ± 1.3 kg/m3 | mass density (236.46 K, 30111 kPa): 1203.69 ± 1.3 kg/m3 | mass density (242.31 K, 19417 kPa): 1195.2 ± 1.3 kg/m3 | mass density (243.65 K, 1941.6 kPa): 1186.98 ± 1.3 kg/m3 | mass density (243.68 K, 41792 kPa): 1203.05 ± 1.3 kg/m3 | mass density (248.82 K, 49885 kPa): 1202.6 ± 1.3 kg/m3 | mass density (249.02 K, 10085 kPa): 1186.52 ± 1.3 kg/m3 | mass density (249.02 K, 30013 kPa): 1194.61 ± 1.3 kg/m3 | mass density (255.69 K, 20148 kPa): 1185.95 ± 1.3 kg/m3 | mass density (255.99 K, 40643 kPa): 1194.01 ± 1.3 kg/m3 | mass density (256.48 K, 1742.5 kPa): 1177.35 ± 1.3 kg/m3 | mass density (262.31 K, 10140 kPa): 1176.87 ± 1.3 kg/m3 | mass density (262.31 K, 30102 kPa): 1185.39 ± 1.3 kg/m3 | mass density (263.02 K, 51186 kPa): 1193.4 ± 1.3 kg/m3 | mass density (268.9 K, 59865 kPa): 1192.9 ± 1.3 kg/m3 | mass density (269.12 K, 19855 kPa): 1176.3 ± 1.3 kg/m3 | mass density (269.39 K, 40201 kPa): 1184.79 ± 1.3 kg/m3 | mass density (269.9 K, 2119.2 kPa): 1166.18 ± 1.3 kg/m3 | mass density (275.8 K, 10046 kPa): 1165.7 ± 1.3 kg/m3 | mass density (275.8 K, 29402 kPa): 1175.74 ± 1.3 kg/m3 | mass density (276.43 K, 50285 kPa): 1184.19 ± 1.3 kg/m3 | mass density (283.5 K, 20904 kPa): 1165.06 ± 1.3 kg/m3 | mass density (283.57 K, 60349 kPa): 1183.59 ± 1.3 kg/m3 | mass density (283.61 K, 39900 kPa): 1175.1 ± 1.3 kg/m3 | mass density (284.27 K, 2189.9 kPa): 1156.39 ± 1.2 kg/m3 | mass density (290.66 K, 30442 kPa): 1164.48 ± 1.3 kg/m3 | mass density (290.67 K, 30768 kPa): 1165.27 ± 1.3 kg/m3 | mass density (290.73 K, 10282 kPa): 1155.88 ± 1.2 kg/m3 | mass density (290.73 K, 29904 kPa): 1164.49 ± 1.3 kg/m3 | mass density (290.94 K, 49928 kPa): 1174.49 ± 1.3 kg/m3 | mass density (298.15 K, 104 kPa): 1146.14 ± 1.2 kg/m3 | mass density (298.15 K, 39688 kPa): 1164.06 ± 1.3 kg/m3 | mass density (298.15 K, 40557 kPa): 1164.66 ± 1.3 kg/m3 | mass density (298.17 K, 39707 kPa): 1163.88 ± 1.3 kg/m3 | mass density (298.17 K, 40239 kPa): 1163.87 ± 1.3 kg/m3 | mass density (298.52 K, 20112 kPa): 1155.26 ± 1.2 kg/m3 | mass density (299.11 K, 712.5 kPa): 1145.27 ± 1.2 kg/m3 | mass density (299.38 K, 61164 kPa): 1173.79 ± 1.3 kg/m3 | mass density (305.93 K, 49286 kPa): 1163.44 ± 1.3 kg/m3 | mass density (305.93 K, 49685 kPa): 1163.24 ± 1.3 kg/m3 | mass density (306.82 K, 10007 kPa): 1144.66 ± 1.2 kg/m3 | mass density (306.83 K, 30854 kPa): 1154.59 ± 1.2 kg/m3 | mass density (314.42 K, 60539 kPa): 1162.55 ± 1.3 kg/m3 | mass density (315.25 K, 20171 kPa): 1144 ± 1.2 kg/m3 | mass density (315.38 K, 41468 kPa): 1153.9 ± 1.2 kg/m3 | mass density (315.84 K, 1234.2 kPa): 1133.94 ± 1.2 kg/m3 | mass density (322.71 K, 50376 kPa): 1153.32 ± 1.2 kg/m3 | mass density (323.55 K, 9964.4 kPa): 1133.35 ± 1.2 kg/m3 | mass density (323.55 K, 29837 kPa): 1143.36 ± 1.2 kg/m3 | mass density (330.59 K, 59794 kPa): 1152.68 ± 1.2 kg/m3 | mass density (332.16 K, 39991 kPa): 1142.68 ± 1.2 kg/m3 | mass density (332.36 K, 19953 kPa): 1132.67 ± 1.2 kg/m3 | mass density (333.47 K, 1089.8 kPa): 1121.71 ± 1.2 kg/m3 | mass density (340.92 K, 49956 kPa): 1141.99 ± 1.2 kg/m3 | mass density (341.61 K, 9779.8 kPa): 1121.11 ± 1.2 kg/m3 | mass density (341.63 K, 29941 kPa): 1131.97 ± 1.2 kg/m3 | mass density (349.19 K, 1374.3 kPa): 1111.71 ± 1.2 kg/m3 | mass density (349.88 K, 60027 kPa): 1141.28 ± 1.2 kg/m3 | mass density (350.49 K, 39672 kPa): 1131.28 ± 1.2 kg/m3 | mass density (351.2 K, 20298 kPa): 1120.38 ± 1.2 kg/m3 | mass density (357.12 K, 9595.1 kPa): 1111.13 ± 1.2 kg/m3 | mass density (357.12 K, 26381 kPa): 1119.93 ± 1.2 kg/m3 | mass density (357.12 K, 46792 kPa): 1130.77 ± 1.2 kg/m3

CCCCCCn1cc[n+](C)c1.O=S(=O)([O-])C(F)(F)F [1-hexyl-3-methylimidazolium trifluoromethanesulfonate]
mass density (303.14 K, 103.8 kPa): 1234.94 ± 1.4 kg/m3 | mass density (303.15 K, 8671.3 kPa): 1241.37 ± 1.4 kg/m3 | mass density (303.15 K, 9948.5 kPa): 1242.12 ± 1.4 kg/m3 | mass density (303.15 K, 10145 kPa): 1241.33 ± 1.4 kg/m3 | mass density (303.15 K, 18778 kPa): 1246.84 ± 1.4 kg/m3 | mass density (303.15 K, 29540 kPa): 1252.92 ± 1.4 kg/m3 | mass density (303.15 K, 50077 kPa): 1263.74 ± 1.4 kg/m3 | mass density (303.15 K, 50213 kPa): 1263.74 ± 1.4 kg/m3 | mass density (303.16 K, 19876 kPa): 1246.81 ± 1.4 kg/m3 | mass density (303.16 K, 30131 kPa): 1252.9 ± 1.4 kg/m3 | mass density (303.16 K, 40525 kPa): 1258.84 ± 1.4 kg/m3 | mass density (303.16 K, 40749 kPa): 1258.84 ± 1.4 kg/m3 | mass density (303.93 K, 1169.5 kPa): 1236.1 ± 1.4 kg/m3 | mass density (311.1 K, 19363 kPa): 1240.66 ± 1.4 kg/m3 | mass density (311.1 K, 50109 kPa): 1258.15 ± 1.4 kg/m3 | mass density (311.4 K, 59971 kPa): 1263.03 ± 1.4 kg/m3 | mass density (311.64 K, 29371 kPa): 1246.09 ± 1.4 kg/m3 | mass density (312.12 K, 10064 kPa): 1235.43 ± 1.4 kg/m3 | mass density (312.13 K, 19984 kPa): 1241.37 ± 1.4 kg/m3 | mass density (312.35 K, 40711 kPa): 1252.12 ± 1.4 kg/m3 | mass density (312.67 K, 1137.8 kPa): 1229.31 ± 1.3 kg/m3 | mass density (320.01 K, 60231 kPa): 1257.4 ± 1.4 kg/m3 | mass density (320.69 K, 29908 kPa): 1239.86 ± 1.4 kg/m3 | mass density (321.26 K, 40148 kPa): 1245.28 ± 1.4 kg/m3 | mass density (321.32 K, 10225 kPa): 1228.6 ± 1.3 kg/m3 | mass density (321.34 K, 19896 kPa): 1234.67 ± 1.4 kg/m3 | mass density (321.7 K, 51336 kPa): 1251.33 ± 1.4 kg/m3 | mass density (322.86 K, 1202 kPa): 1221.53 ± 1.3 kg/m3 | mass density (330.07 K, 40113 kPa): 1239.07 ± 1.4 kg/m3 | mass density (330.33 K, 60665 kPa): 1250.61 ± 1.4 kg/m3 | mass density (330.45 K, 29706 kPa): 1233.91 ± 1.4 kg/m3 | mass density (330.66 K, 50504 kPa): 1244.49 ± 1.4 kg/m3 | mass density (331.61 K, 20974 kPa): 1227.76 ± 1.3 kg/m3 | mass density (331.62 K, 10028 kPa): 1220.82 ± 1.3 kg/m3 | mass density (332.5 K, 1153.4 kPa): 1214.09 ± 1.3 kg/m3 | mass density (339.16 K, 49816 kPa): 1238.32 ± 1.4 kg/m3 | mass density (339.45 K, 59226 kPa): 1243.78 ± 1.4 kg/m3 | mass density (340.07 K, 39808 kPa): 1233.11 ± 1.3 kg/m3 | mass density (340.31 K, 30074 kPa): 1227.04 ± 1.3 kg/m3 | mass density (341.51 K, 9933.5 kPa): 1213.37 ± 1.3 kg/m3 | mass density (341.52 K, 20038 kPa): 1220.02 ± 1.3 kg/m3 | mass density (342.34 K, 977.2 kPa): 1206.6 ± 1.3 kg/m3 | mass density (348.25 K, 58008 kPa): 1237.59 ± 1.4 kg/m3 | mass density (349.94 K, 49966 kPa): 1232.3 ± 1.3 kg/m3 | mass density (350.06 K, 39798 kPa): 1226.25 ± 1.3 kg/m3 | mass density (351.54 K, 29910 kPa): 1219.2 ± 1.3 kg/m3 | mass density (351.77 K, 10055 kPa): 1205.85 ± 1.3 kg/m3 | mass density (351.77 K, 19878 kPa): 1212.55 ± 1.3 kg/m3
